The record followed here is PubChem BioAssay AID1963451 (Molecular Pharmacology Branch, DTP, NCI, 2024).

For the experiment, the system named is 521955-158-R6-J3-PDC complex spheroid growth, % test/control. Put plainly: Anticancer human tumor 521955-158-R6-J3-PDC patient-derived pancreatic carcinoma cell line growth inhibition [Asc]. Conditions: for viability, T/C: stronger effect = lower value. An outline of the steps: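 Tumor cells were grown as complex spheroids with human endothelial cells (HUVEC) and human mesenchymal stem cells as stroma. Agents were tested alone and in combination, in half-log steps down from the clinical Cmax, or from 10 microM where Cmax was unknown.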

Values joined by “and” are separate entries in the source; they are usually repeats but may differ in a detail not shown here. Equal values may be shown once. Where only a bound is given, the exact number is not on record here.
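Note: spheroids exposed to compounds for 7 days.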
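Throughout, for viability, T/C: 100% = DMSO vehicle control wells.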

For `Cc1nc(N2CCC3(CC2)COC(C)C3N)c(CO)nc1Sc1ccnc(N)c1Cl` (configuration not stated) + CNC(C)C(=O)NC1CN(S(=O)(=O)c2cccc(S(=O)(=O)N3CCC4CCC(C(=O)NC(c5ccccc5)c5ccccc5)N4C(=O)C(NC(=O)C(C)NC)C3)c2)CCC2CCC(C(=O)NC(c3ccccc3)c3ccccc3)N2C1=O, the IC50 by setting is: (curve of first compound, second compound 0.00316 µM) > 3 µM; (curve of first compound, second compound 0.01 µM) > 3 µM; (curve of first compound, second compound 0.0316 µM) > 3 µM; (curve of first compound, second compound 0.1 µM) > 3 µM; (curve of first compound, second compound 0.316 µM) > 3 µM; (curve of first compound, second compound 1 µM) > 3 µM. Besides, the viability, T/C was 99.5% (second compound 0.00316 µM, first compound 0.00949 µM); 88.7% (second compound 0.00316 µM, first compound 0.03 µM); 73.2% (second compound 0.00316 µM, first compound 0.0949 µM); 86.7% (second compound 0.00316 µM, first compound 0.3 µM); 73.4% (second compound 0.00316 µM, first compound 0.949 µM); 55% (second compound 0.00316 µM, first compound 3 µM). For the same compound, the viability, T/C reads like this: (second compound 0.01 µM, first compound 0.00949 µM) 109%; (second compound 0.01 µM, first compound 0.03 µM) 74%; (second compound 0.01 µM, first compound 0.0949 µM) 79.4%; (second compound 0.01 µM, first compound 0.3 µM) 87.7%; (second compound 0.01 µM, first compound 0.949 µM) 69.9%; (second compound 0.01 µM, first compound 3 µM) 57.9%. Besides, the viability, T/C is 90% (second compound 0.0316 µM, first compound 0.00949 µM); 83.1% (second compound 0.0316 µM, first compound 0.03 µM); 81.1% (second compound 0.0316 µM, first compound 0.0949 µM); 73.4% (second compound 0.0316 µM, first compound 0.3 µM); 63.6% (second compound 0.0316 µM, first compound 0.949 µM); 55% (second compound 0.0316 µM, first compound 3 µM). For the same compound, the viability, T/C (second compound 0.1 µM, first compound 0.00949 µM) is 94.6%; the viability, T/C (second compound 0.1 µM, first compound 0.03 µM) is 79.5%; the viability, T/C (second compound 0.1 µM, first compound 0.0949 µM) is 82.3%; the viability, T/C (second compound 0.1 µM, first compound 0.3 µM) was 68.5%; the viability, T/C (second compound 0.1 µM, first compound 0.949 µM) was 60.1%; the viability, T/C (second compound 0.1 µM, first compound 3 µM) is 60.1%. Also, the viability, T/C (second compound 0.316 µM, first compound 0.00949 µM) was 82.9%; the viability, T/C (second compound 0.316 µM, first compound 0.03 µM) is 74.9%; the viability, T/C (second compound 0.316 µM, first compound 0.0949 µM) is 77.4%; the viability, T/C (second compound 0.316 µM, first compound 0.3 µM) is 67.6%; the viability, T/C (second compound 0.316 µM, first compound 0.949 µM) was 62.5%; the viability, T/C (second compound 0.316 µM, first compound 3 µM) was 52.9%. The viability, T/C is 82.7% (second compound 1 µM, first compound 0.00949 µM); 79.8% (second compound 1 µM, first compound 0.03 µM); 74.6% (second compound 1 µM, first compound 0.0949 µM); 73% (second compound 1 µM, first compound 0.3 µM); 73.9% (second compound 1 µM, first compound 0.949 µM); 57.6% (second compound 1 µM, first compound 3 µM).

In the case of `O=C(c1ccc(F)c(F)c1Nc1ccc(I)cc1F)N1CC(O)([C@@H]2CCCCN2)C1`, the viability, T/C by setting is: (compound 0.00316 µM) 87.6% and 110% and 88.3%; (compound 0.01 µM) 116% and 111% and 90.7%; (compound 0.0316 µM) 120% and 125% and 79.5%; (compound 0.1 µM) 105% and 98.2% and 79%; (compound 0.316 µM) 67.9% and 66.9% and 54%; (compound 1 µM) 41% and 41.8% and 29.7%. For the same compound, the IC50 (curve of compound) is 0.681 µM and 0.684 µM and 0.396 µM.

With `CCN1C(C(=O)NC23CCC(C(=O)O)(CC2)CC3)C(c2cccc(Cl)c2F)C2(C(=O)Nc3cc(Cl)ccc32)C12CCCCC2` (configuration not stated), the viability, T/C (compound 0.3 µM) was 109% [middle of 9 runs]. In addition, the IC50 by setting is: (compound alone, run of 11/07/2022) > 3 µM; (curve of compound) > 3 µM.
